Laboratory results: patent US6660741B2, “Asymmetric synthesis of (S,S,R)-(-)-actinonin and its analogs and uses therefor” (Sloan-Kettering Institute for Cancer Research, priority 2001, dated 2003)
Like-named read-outs stand apart in the source and are kept apart here.

Key:
Type in all cases: cell-based
[1] = tested on: HL60 (acute myeloid leukemia, CD13 positive) cells; assay: Inhibition of tritiated thymidine incorporation, 5 day, HL60; conditions: HL60, 5 days
Description: (§1) Actinonin was purchased from Sigma (St. Louis, Mo.). Biotinylated-Actinonin and all analogs were synthesized. Actinonin stock solution was 5 mg/ml in 10% ethanol. Biotinylated-actinonin and all other analogs were diluted in 10% DMSO to give stock solutions in the range of 1-20 mg/ml.
(§2) Daudi (B lineage Burkitt's lymphoma, CD13 negative) and HL60 (acute myeloid leukemia, CD13 positive) cells were maintained in culture using RPMI 1640 supplemented with 10% heat-inactivated FBS (Omega Scientific, Inc., Tarzana, Calif.) and 1% L-glutamine (Gibco/Invitrogen, Carlsbad, Calif.) at 37° C. in a humidified atmosphere of 5% CO2. Cell viability was higher than 90%, and cells were free of mycoplasma contamination.
(§3) An aliquot of 200 ul of cells (10,000 cells/well) was washed and incubated at 37° C. in 96-well plates in the presence or absence of actinonin/analogs. Serial dilutions were made in complete media. After 5 days of incubation, 50 ul of 10 uCi/mL tritiated thymidine (PerkinElmer, Boston, Mass.) was added to each well and allowed to incorporate for 5 hours. Plates were frozen at −80° C. overnight and cells were harvested onto filtermats (Wallac, Finland) using a semi-automatic harvester (Skatron, Sterling, Va.). Filtermats were counted in a 1205 Betaplate™ liquid scintillation counter (Wallac, Finland). The reference numbers refer to those analogs disclosed in Example 6. Compounds 35, 42, 48, 52, 53, and 56 are effective at inhibiting cell growth.

[2] = tested on: Daudi (B lineage Burkitt's lymphoma, CD13 negative) cells; assay: Inhibition of tritiated thymidine incorporation, 5 day, Daudi; conditions: 5 days
Description: as §1, §2, §3

Daudi and HL60 cells = assay: Thymidine incorporation, summary statement on cell growth (Daudi and HL60); conditions: summary of Tables 4 and 5
Description: as §1, §2, §3

[3] = Homo sapiens, HL-60, 120 h, read-out: HL60 IC50 (uM), 5 day thymidine incorporation
[4] = Homo sapiens, HL-60, 120 h, read-out: HL60 IC50 (ug/mL), 5 day thymidine incorporation
[5] = Homo sapiens, 120 h, read-out: Daudi IC50 (uM), 5 day thymidine incorporation
[6] = Homo sapiens, 120 h, read-out: Daudi IC50 (ug/mL), 5 day thymidine incorporation

HL60 IC50 (ug/mL), 5 day thymidine incorporation [1] [µg/mL]	IC50 ([1]; read-out: HL60 IC50 (uM), 5 day thymidine incorporation) [µM]	Daudi IC50 (ug/mL), 5 day thymidine incorporation [2] [µg/mL]	IC50 ([2]; read-out: Daudi IC50 (uM), 5 day thymidine incorporation) [µM]	IC50 [1, 3] [µM]	IC50 [1, 4] [µg/mL]	IC50 [2, 5] [µM]	IC50 [2, 6] [µg/mL]	SMILES	inhibiting cell growth (Daudi and HL60 cells)
>100	> 395	>100	> 395					O=C(O)CNC(=O)C(CS)Cc1ccccc1 (racemic) [DL-Thiorphan, reference compound]	
				19.5	6.9	18.7	6.6	CCCCC[C@H](CC(N)=O)C(=O)N[C@H](C(=O)N1CCC[C@H]1C)C(C)C (stereo in doubt) [Compound 51, N1-(1-(2-methyl-pyrrolidine-1-carbonyl)-2-methyl-propyl)-2-pentyl-succinamide]	
				138	50	16.6	6	CCCC[C@@H](C=O)NC(=O)[C@H](CC(C)C)NC(=O)OCc1ccccc1 [Calpeptin, reference compound]	
				17.7	7.1	14.1	5.7	CCCCC[C@H](CC(=O)NO)C(=O)N[C@@H](CC(C)C)C(=O)N1CCC[C@H]1CO [Compound 35, N4-hydroxy-N1-(1-(2-hydroxymethyl-pyrrolidine-1-carbonyl)-3-methyl-butyl)-2-pentyl-succinamide]	effective
				15.8	7.1	12.9	5.8	CCCCC[C@H](CC(=O)NO)C(=O)N[C@@H](Cc1ccccc1)C(=O)N1CCC[C@H]1CO [Compound 42, N1-(1-benzyl-2-(2-hydroxymethyl-pyrrolidin-1-yl)-2-oxo-ethyl)-N4-hydroxy-2-pentyl-succinamide]	effective
				29.5	10.5	22.4	8	CC(C)[C@H](NC(=O)[C@H](C)CC(=O)NO)C(=O)N1CCC[C@H]1CO [Compound 48, N4-hydroxy-N1-(1-(2-hydroxymethyl-pyrrolidine-1-carbonyl)-2-methyl-propyl)-2-methyl-succinamide]	effective
				> 130	> 50	> 130	> 50	CCCCC[C@H](CC(N)=O)C(=O)N[C@@H](CC(C)C)C(=O)N1CCC[C@H]1CO [Compound 49, N1-(1-(2-hydroxymethyl-pyrrolidine-1-carbonyl)-3-methyl-butyl)-2-pentyl-succinamide]	
				12.1	5.2	2.7	1.2	CCCCC[C@H](CC(=O)NO)C(=O)N[C@@H](Cc1ccccc1)C(=O)N1CCC[C@H]1C [Compound 52]	effective
				26	10	18.2	7	CCCCC[C@H](CC(=O)NO)C(=O)N[C@H](C(=O)N1CCC[C@H]1CN)C(C)C [Compound 53, N4-hydroxy-N1-(1-(2-methylamine-pyrrolidine-1-carbonyl)-2-methyl-propyl)-2-pentyl-succinamide]	effective
				> 239	> 100			CCCCC[C@H](CC(=O)O)C(=O)N[C@@H](Cc1ccccc1)C(=O)N1CCC[C@H]1CO [Compound 54, 3-[1-(2-hydroxymethyl-pyrrolidin-1-yl)-2-benzylcarbamoyl]-octanoic acid]	
				6.7	2.77	0.97	0.402	CCCCC[C@H](CC(=O)NO)C(=O)N[C@H](C(=O)N1CCC[C@H]1C(=O)OC)C(C)C [Compound 55]	
				> 251	> 100	> 251	> 100	CCCCC[C@H](CC(=O)NO)C(=O)N[C@H](C(=O)N1CCC[C@H]1C(=O)O)C(C)C [Compound 56, N4-hydroxy-N1-(1-(2-carboxy-pyrrolidine-1-carbonyl)-2-methyl-propyl)-2-pentyl-succinamide]	effective
				> 211	> 100			CCCCC[C@H](CC(=O)N(CC)CC)C(=O)N[C@@H](Cc1ccccc1)C(=O)N1CCC[C@H]1CO [Compound 57]	
				> 225	> 100			CCCCC[C@H](CC(=O)NCC)C(=O)N[C@@H](Cc1ccccc1)C(=O)N1CCC[C@H]1CO [Compound 58]	
				> 176	> 100			CCCCC[C@H](CC(=O)NCc1ccc(OC)cc1OC)C(=O)N[C@@H](Cc1ccccc1)C(=O)N1CCC[C@H]1CO [Compound 59]	
				196	90			CCCCC[C@H](CC(=O)NN(C)C)C(=O)N[C@@H](Cc1ccccc1)C(=O)N1CCC[C@H]1CO [Compound 60, 2-(N′,N′-dimethyl-hydrazinocarbonylmethyl)-heptanoic acid [1-benzyl-2-(2-hydroxymethyl-pyrrolidin-1-yl)-2-oxo-ethyl]-amide]	
				> 181	> 100			CCCCC[C@H](CC(=O)NCc1ccc([N+](=O)[O-])cc1)C(=O)N[C@@H](Cc1ccccc1)C(=O)N1CCC[C@H]1CO [Compound 61]	
				> 200	> 100			CCCCC[C@H](CC(=O)N1CCN(C)CC1)C(=O)N[C@@H](Cc1ccccc1)C(=O)N1CCC[C@H]1CO [Compound 62, 2-[2-(4-methyl-piperazin-1-yl)-2-oxo-ethyl]-heptanoic acid [1-benzyl-2-(2-hydroxymethyl-pyrrolidin-1-yl)-2-oxo-ethyl]-amide]	
				> 224	> 100			CCCCC[C@H](CC(=O)NOC)C(=O)N[C@@H](Cc1ccccc1)C(=O)N1CCC[C@H]1CO [Compound 63]	
				> 206	> 100			CCCCC[C@H](CC(=O)N1CCCCC1)C(=O)N[C@@H](Cc1ccccc1)C(=O)N1CCC[C@H]1CO [Compound 64]	
				> 217	> 100			CCCCC[C@H](CC(=O)N(C)OC)C(=O)N[C@@H](Cc1ccccc1)C(=O)N1CCC[C@H]1CO [Compound 65]	
